Experimental findings from publication PMC5050486 (Scientific Reports, 2016) are described below.

“Also recorded” adds a separate entry of the source. Where no end group is shown, it is not given here.

By inhibition is commonly meant the relative decrease from the control value, in per cent.

Assay [1] relates to LF-PA63 treated RAW264.7 cells. Type of assay: cell-based, mouse.
Assay [2] has as its system Cholera toxin treated RAW264.7 cells. Type of assay: cell-based, mouse.
In assay [3] the test system is LF-PA treated mouse macrophage RAW264.7 cells. Type of assay: cell-based.
In assay [4] the test system is Pseudomonas aeruginosa exotoxin A treated RAW264.7 cells. In kind it is cell-based, mouse.
Assay [5] addresses T1, caspase-3 (Homo sapiens, UniProt P42574).
T1 construct: purchased BioVision
T1 sequence (P42574 29-277): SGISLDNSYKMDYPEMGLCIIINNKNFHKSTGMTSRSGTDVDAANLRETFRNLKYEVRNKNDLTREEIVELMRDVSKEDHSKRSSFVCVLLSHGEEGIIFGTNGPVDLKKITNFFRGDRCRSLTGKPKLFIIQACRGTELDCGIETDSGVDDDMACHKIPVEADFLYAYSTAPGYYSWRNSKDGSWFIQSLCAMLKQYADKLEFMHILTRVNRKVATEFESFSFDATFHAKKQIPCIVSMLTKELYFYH
In words: Host protease FRET test, caspase-3. In kind it is biochemical. Particulars: 33 μM drug, FRET; N/I = no FRET inhibition; read-out: Percent Inhibition with 33 μM of drug, Casp 3.

The target in assay [6] is cathepsin B (Homo sapiens, UniProt P07858). In words: Host protease FRET test, cathepsin B. Type of assay: biochemical. As to conditions: 33 μM drug, N/I = no FRET inhibition, read-out: Percent Inhibition with 33 μM of drug, Cath B.
Assay [7] deals with anthrax LF (Bacillus anthracis, UniProt P15917). In words: biochemical. Particulars: read-out: Percent Inhibition with 33 μM of drug, LF.
In assay [8] the target is T2, human furin (Homo sapiens, UniProt P09958).
T2 construct: purchased New England Biolabs
In words: Host protease FRET test, furin. In kind it is biochemical. Particulars: 33 μM drug, FRET; N/I = no FRET inhibition; read-out: Percent Inhibition with 33 μM of drug, Furin.

T2 sequence (P09958 108-794): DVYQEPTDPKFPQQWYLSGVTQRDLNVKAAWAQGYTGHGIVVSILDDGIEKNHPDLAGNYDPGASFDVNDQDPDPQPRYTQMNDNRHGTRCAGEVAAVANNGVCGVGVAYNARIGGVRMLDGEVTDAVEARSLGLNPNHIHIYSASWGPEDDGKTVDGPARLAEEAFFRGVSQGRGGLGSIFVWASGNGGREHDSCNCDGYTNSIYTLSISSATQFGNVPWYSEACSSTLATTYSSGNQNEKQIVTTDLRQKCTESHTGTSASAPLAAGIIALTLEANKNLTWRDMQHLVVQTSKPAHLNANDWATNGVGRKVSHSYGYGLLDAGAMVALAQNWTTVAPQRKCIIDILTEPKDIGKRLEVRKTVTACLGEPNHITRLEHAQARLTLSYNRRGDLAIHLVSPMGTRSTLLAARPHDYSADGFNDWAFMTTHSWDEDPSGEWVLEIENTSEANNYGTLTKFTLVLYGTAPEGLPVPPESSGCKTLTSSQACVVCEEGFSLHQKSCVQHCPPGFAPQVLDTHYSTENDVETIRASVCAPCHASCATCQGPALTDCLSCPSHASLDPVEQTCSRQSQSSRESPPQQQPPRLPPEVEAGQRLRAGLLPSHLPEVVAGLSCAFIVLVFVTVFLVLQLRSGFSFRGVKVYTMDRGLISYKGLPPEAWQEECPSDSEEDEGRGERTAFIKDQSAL
anthrax LF, sequence (P15917 34-809 limits assumed): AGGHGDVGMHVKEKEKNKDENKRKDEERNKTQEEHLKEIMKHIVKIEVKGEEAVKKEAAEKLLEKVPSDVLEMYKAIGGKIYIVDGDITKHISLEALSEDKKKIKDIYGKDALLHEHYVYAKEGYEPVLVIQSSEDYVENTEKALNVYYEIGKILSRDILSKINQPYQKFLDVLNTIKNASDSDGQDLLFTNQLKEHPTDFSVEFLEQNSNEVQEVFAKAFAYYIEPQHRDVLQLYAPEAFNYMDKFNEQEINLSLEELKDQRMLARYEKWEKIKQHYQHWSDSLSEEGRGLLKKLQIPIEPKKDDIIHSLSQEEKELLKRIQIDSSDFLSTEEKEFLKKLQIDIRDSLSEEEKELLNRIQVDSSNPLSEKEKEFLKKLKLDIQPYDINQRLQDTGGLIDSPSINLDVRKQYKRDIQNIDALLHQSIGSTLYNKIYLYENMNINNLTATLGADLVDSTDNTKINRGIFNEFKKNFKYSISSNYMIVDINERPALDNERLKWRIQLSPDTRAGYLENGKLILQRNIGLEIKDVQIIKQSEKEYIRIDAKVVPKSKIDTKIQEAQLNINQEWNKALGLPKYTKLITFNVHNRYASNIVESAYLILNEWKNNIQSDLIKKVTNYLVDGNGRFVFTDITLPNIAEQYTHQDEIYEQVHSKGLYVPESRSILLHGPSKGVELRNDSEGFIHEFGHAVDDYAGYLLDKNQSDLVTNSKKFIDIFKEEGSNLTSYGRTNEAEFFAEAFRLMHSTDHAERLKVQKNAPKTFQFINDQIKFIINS

With “MPRRRRSSSRPVRRRRRPRVSRRRRRRGGRRRR [Salmon Sperm Protamine]”, the “Protection against cell death induced by LF and PA63” value in assay [1] is on record as “reduces cellular sensitivity; also recorded: effectively protected all cells”. Moreover, in assay [2], the “Protection against CT-mediated cell killing” value was “substantial protection”. In addition, the “Protection against LF-PA mediated cell killing” value in assay [3] is reported as “complete protection”. In assay [4], the “Protection against PE-mediated cell killing” value is listed as “substantial protection”. Besides, the inhibition at 33 µM was determined as 87 ± 2.8% in assay [5], 65 ± 0.5% in assay [6], 107 ± 1.4% in assay [7] and 96 ± 1.2% in assay [8].
